From patent publication US8263574B2, “Topical formulations for the treatment of depression with S adenosyl methionine” (priority 2004, dated 2012)
Values joined by “and” are separate entries in the source; they are usually repeats but may differ in a detail not shown here. Identical values can stand only once. Like-named read-outs stand apart in the source and are kept apart here.

Experiments:
depressive symptoms = conditions: 195 patients, 400 mg intramuscular for 15 days; cited from earlier work
Major Depression = test: Child case studies: oral SAM-e in Major Depression (Children's Depression Inventory, clinical report); assay type: in vivo, human
Text: Two girls were brought in for a consult by a pediatrician and their spouse, a nutritionist. Both parents had studied SAM-e, and preferred “a trial” before traditional anti-depressants.
Case 1. A child (34 kg.) developed increased irritability, boredom, eccentric crying, withdrawal, decreased appetite, middle insomnia, new school performance problems and sadness. They began to discuss death themes and became preoccupied with heaven, despite no new exposures to these topics. They met DSM-IV TR criteria for Major Depression, had no significant stressors in their life, and on the Children's Depression Inventory (CDI) scored a 34.
They were placed on a 200 mg SAM-e enteric-coated tablet each morning, before eating for a week. Subsequently, the dose was raised to 400 mg. […] Improvement began after 4 days on 400 mg. At three weeks, it was increased to 600 mg a day, with rapid and complete resolution of their depressive symptoms in 2 days. […] Their CDI fell to a 4. They have been on this dose for over 6 months.
Case 2. child one (24 kg.) developed new problems with crying, sadness, decreased play, and an inability to be consoled. They made new negative identity comments, i.e., “I'm no good Mommy.” The child was well liked by adults and peers, but felt “no one liked them,” They also began saying they “hated school” even though they were in the top ⅓rd of their class. Their symptoms began 4-5 months after their sibling's MD began. They met DSM-IV TR criteria for Major Depression and on the Children's Depression Inventory scored 29.
Their CDI decreased to 6 and 7. After 3 months, they were “a little sad like before” per their parent, and was increased to 200 mg each am and afternoon with a CDI of 6. They have remained on this dose for over 6 months.
Case 3. A person (86 kg.), unrelated to the girls described above, was diagnosed with Major Depression and Oppositional Defiant Disorder based on DSM-IV TR criteria from a clinical interview with parents and patient. They refused diagnostic scales. Their parents reported a 1½ year history of irritability, boredom, reactivity, decreased interest in all activities but computer games, sadness, excess sleep, fatigue, hopelessness, and trouble concentrating. […] Extensive laboratory testing and family doctor physical exam were negative.
Their mood and function improved to their baseline over 1-2 weeks according to parents, teacher and psychiatrist. Yet they had residual oppositionality. After 2-3 months the youth stopped their SAM-e due to “being sick of all the pills.” They had been taking […] tablets daily. They relapsed over the course of 3 weeks to “½” […] initial baseline depression per patient and parents. Again, they refused quantitative depression scales. Behaviorally, they stopped returning calls, became bored again, and had decreased homework performance with no identifiable new stressors. Restoring the SAM-e to three 400 mg tablets—800 mg per am and 400 after school—restored them to baseline in 5-8 days from parent report confirmed with diagnostic interview. They have remained on this dosing for approximately 22 weeks.

[1] = system: major depressive disorder; conditions: cited from earlier work
[2] = system: patients with Major Depression; conditions: cited from earlier work
[3] = infusions of 800 mg, placebo-controlled crossover; cited from earlier work

C[S+](CC[C@H](N)C(=O)O)C[C@H]1O[C@@H](n2cnc3c(N)ncnc32)[C@H](O)[C@@H]1O (some centres unmarked) [SAM-e, S-adenosyl methionine]
effect on depressive symptoms (depressive symptoms): remission on both day 7 and 15 | response over 3 weeks (Major Depression; Case 1, oral 400 mg): modest improvement | time until improvement began (Major Depression; Case 1, oral 400 mg): 4 days | side effects (Major Depression; Case 1, oral 600 mg a day): no signs of mania, anxiety, insomnia, diarrhea, abdominal pain or nausea | time to complete resolution of depressive symptoms (Major Depression; Case 1, oral 600 mg a day): 2 days | Children's Depression Inventory (CDI) on treatment (Major Depression; Case 1, oral 600 mg a day, CDI before treatment 34): 4 | time to signs of improvement (Major Depression; Case 2 (person one), oral 200 mg): 2 days | side effects (Major Depression; Case 2, oral 200 mg): no side effects | time until at baseline (Major Depression; Case 2, oral 200 mg): 11 days | Children's Depression Inventory (CDI) on treatment (Major Depression; Case 2, oral 200 mg each am and afternoon, after 3 months): 6 | Children's Depression Inventory (CDI) on treatment (Major Depression; Case 2, oral 200 mg, CDI before treatment 29): 6 and 7 | time until restored to baseline after restart (Major Depression; Case 3, oral 800 mg per am and 400 after school): 5 to 8 days | side effects after dose reduction (Major Depression; Case 3, oral 1400 mg): loss of both side effects | time until mood and function improved to baseline (Major Depression; Case 3, oral 1400 mg): 1-2 weeks | side effects (Major Depression; Case 3, oral 1800 mg): slight tremor and slight anxiety | time course of relapse after stopping SAM-e (Major Depression; Case 3, relapse to "½" initial baseline depression): 3 weeks | self-reported effect on depression (Major Depression; both parents of Cases 1 and 2, 1200-1400 mg per day): full remission of their depression | efficacy in major depressive disorder ([1]; 13 trials vs placebo, 19 trials vs tricyclic antidepressants, more than 1,400 patients): effective | efficacy in major depression versus placebo and tricyclics ([1]; intravenous and intramuscular preparations, 14 double-blind European studies): more effective than placebo and comparable to imipramine, amitriptyline and clomipramine | efficacy compared with imipramine ([2]; SAM-e intramuscular 400 mg/d vs. oral IMI 150 mg/d, 4 weeks): did not differ significantly on any efficacy measure | tolerability compared with imipramine ([2]; both studies): better tolerated than IMI | efficacy compared with imipramine ([2]; intramuscular (400 mg) and oral SAM-e (1600 mg, 6 weeks) in adults): comparable to 150 mg of imipramine (IMI) | EEG / ERP antidepressant effects [3]: effects greater than placebo
